Assay results: patent US8546608B2, “Proteasome inhibitors and methods of using the same” (Cephalon, Inc., priority 2003, dated 2013)
Read-outs that look alike come from different tables or passages of the source.

Legend:
[1] = molecular target: T1, 20S Human Erythrocyte Proteasome (HEP) (Homo sapiens, UniProt P20618+P28074); test: Chymotrypsin-like activity of 20S Human Erythrocyte Proteasome (HEP), IC50 determination; type: biochemical; details: assay of Example C, inhibition of HEP
T1 construct: 20S Human Erythrocyte Proteasome (HEP), purchased from Immatics Biotechnologies Inc; purchased Immatics Biotechnologies Inc., Tübingen, Germany; host or cells: human erythrocytes (natural source)
How it was run: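 20S proteasome at 0.2 μg/mL (about 0.6 nM catalytic sites) in 20 mM Tris with 0.04% SDS, preincubated 15 min at 37° C with inhibitor before Suc-LLVY-AMC (100 μM final). AMC fluorescence read in the linear range; triplicates, IC50 from concentration series.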

[2] = molecular target: T2, proteasome in Molt-4 cells (human leukemia) (Homo sapiens, UniProt P20618+P28074); type: cell-based
T2 sequence (P28074 60-263): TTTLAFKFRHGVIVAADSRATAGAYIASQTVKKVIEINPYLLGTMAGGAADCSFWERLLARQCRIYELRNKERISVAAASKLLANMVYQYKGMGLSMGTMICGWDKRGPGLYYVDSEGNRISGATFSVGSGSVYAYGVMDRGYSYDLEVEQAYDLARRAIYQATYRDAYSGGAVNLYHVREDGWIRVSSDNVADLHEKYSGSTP
T2 sequence (P20618 29-241): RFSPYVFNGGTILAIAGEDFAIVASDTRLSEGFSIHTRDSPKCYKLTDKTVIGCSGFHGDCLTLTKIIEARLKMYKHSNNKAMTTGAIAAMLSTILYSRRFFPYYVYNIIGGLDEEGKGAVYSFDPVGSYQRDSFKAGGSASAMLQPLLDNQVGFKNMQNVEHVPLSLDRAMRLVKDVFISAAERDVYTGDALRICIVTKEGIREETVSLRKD
How it was run: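 Intact Molt-4 cells (6×10^6 cells/mL) in HEPES-buffered saline were preincubated with inhibitor 15 min at 37 °C, then given cell-permeable MeOSuc-FLF-AFC at 25 μM final.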

[3] = assay of Example E, inhibition of MOLT4; read-out: MOLT4 (EC50)

Structure (SMILES) | IC50 [1] [nM] | EC50 [2, 3] [nM] | melting point [°C] | EC50 ([2]; read-out: MOLT4 (EC50); assay of Example E, inhibition of MOLT4) [nM]
CCCCc1ccc(C(=O)N[C@@H](CNC(=O)NS(=O)(=O)c2ccc(C)cc2)C(=O)N[C@@H](CC(C)C)B(O)O)cc1 [E.5.36] | < 100 | 200 to 2000 | 175 to 177 | –
CCCCc1ccc(C(=O)N[C@@H](CNC(=O)OCc2ccccc2)C(=O)N[C@@H](CC(C)C)B(O)O)cc1 [E.5.6] | < 10 | < 200 | 92 to 96 | –
CCCCc1ccc(C(=O)N[C@@H](CNS(=O)(=O)c2ccc(N3CCOCC3)nc2)C(=O)N[C@@H](CC(C)C)B(O)O)cc1.Cl [E.5.27, Boronic acid, [(1R)-1-[[(2S)-3-[6-morpholin-4-yl-pyridine-3-sulfamoyl]-2-[(4-butylbenzoyl)amino]-1-oxopropyl]amino]-3-methylbutyl] hydrochloride] | < 10 | – | 182 to 184 | < 200
CCCCc1ccc(C(=O)N[C@@H](CNS(C)(=O)=O)C(=O)N[C@@H](CC(C)C)B(O)O)cc1 [E.5.3, Boronic acid, [(1R)-1-[[(2S)-3-(methanesulfamido)-2-[(4-butyl)-benzoylamino]-1-oxopropyl]amino]-3-methylbutyl]] | < 100 | 200 to 2000 | 120 to 123 | –
CC(C)C[C@H](NC(=O)[C@@H](NC(=O)[C@H](CC(C)C)NC(=O)OCc1ccccc1)[C@@H](C)O)B1O[C@@H]2C[C@@H]3C[C@@H](C3(C)C)[C@]2(C)O1 [D.8.1, (2S)-2-[(Benzyloxycarbonyl)amino]-4-methylpentanamide, N-[(1S,2R)-1-[[[(1R)-1-[(3aS,4S,6S,7aR)-hexahydro-3a,5,5-trimethyl-4,6-methano-1,3,2-benzodioxaborol-2-yl]-3-methylbutyl]amino]carbonyl]-2-hydroxypropyl]-] | – | – | 38 to 40 | –
CCCCc1ccc(C(=O)N[C@@H](CNC(=O)c2cccn2C)C(=O)N[C@@H](CC(C)C)B2O[C@@H]3C[C@@H]4C[C@@H](C4(C)C)[C@]3(C)O2)cc1 [D.24.13] | – | – | 88 to 92 | –
CCCCc1ccc(C(=O)N[C@@H](CNS(=O)(=O)c2cn(C)cn2)C(=O)N[C@@H](CC(C)C)B2O[C@@H]3C[C@@H]4C[C@@H](C4(C)C)[C@]3(C)O2)cc1 [D.24.23, 4-butylbenzamide, N-[(1S)-1-[[[(1R)-1-[(3aS,aS,6S,7aR)-hexahydro-3a,5,5-trimethyl-4,6-methano-1,3,2-benzodioxaborol-2-yl-]-3-methylbulyl]amino]carbonyl]-2-[(1-methyl-1H-imidazole-4-)sulfonylamino]ethyl]-] | – | – | 69 to 71 | –
CC(C)C[C@H](NC(=O)[C@H](CNC(=O)c1ccc(-c2ccccc2)cc1)NC(=O)c1ccc(Oc2ccccc2)cc1)B1O[C@@H]2C[C@@H]3C[C@@H](C3(C)C)[C@]2(C)O1 [D.24.31, 4-phenoxybenzamide, N-[(1S)-1-[[[(1R)-1-[(3aS,4S,6S,7aR)-hexahydro-3a,5,5-trimethyl-4,6-methano-1,3,2-benzodioxaborol-2-yl]-3-methylbutyl]amino]carbonyl]-2-(4-phenylbenzoylamino)ethyl]-] | – | – | 150 to 152 | –

Continued, in another order:

IC50 [1] [nM] | EC50 [2, 3] [nM] | melting point [°C] | Structure (SMILES) | EC50 ([2]; read-out: MOLT4 (EC50); assay of Example E, inhibition of MOLT4) [nM]
< 10 | < 200 | 168 to 170 | CCCCc1ccc(C(=O)N[C@@H](CNC(=O)c2ccc(S(C)(=O)=O)cc2)C(=O)N[C@@H](CC(C)C)B(O)O)cc1 [E.5.20, Boronic acid, [(1R)-1-[[(2S)-3-[(4-methylsulfonyl)benzoylamino]-2-[(4-butylbenzoylamino)]-1-oxopropyl]amino]-3-methylbutyl]] | –
< 10 | 200 to 2000 | > 250 | CCCCc1ccc(C(=O)N[C@@H](CNC(=O)c2ccc(-c3nn[nH]n3)cc2)C(=O)N[C@@H](CC(C)C)B(O)O)cc1 [E.5.24, Boronic acid, [(1R)-1-[[(2S)-3-[4-(1H-tetrazolyl)-phenylcarbonylamino]-2-[(4-butylbenzoylamino)]-1-oxopropyl]amino]-3-methylbutyl]] | –
< 10 | < 200 | 53 to 55 | CCCCc1ccc(C(=O)N[C@@H](CNS(C)(=O)=O)C(=O)N[C@@H](CC(C)C)B2O[C@@H]3C[C@@H]4C[C@@H](C4(C)C)[C@]3(C)O2)cc1 [D.24.4, 4-butylbenzamide, N-[(1S)-1-[[[(1R)-1-[(3aS,aS,6S,7aR)-hexahydro-3a,5,5-trimethyl-4,6-methano-1,3,2-benzodioxaborol-2-yl-]-3-methylbulyl]amino]carbonyl]-2-(methanesulfonamido)ethyl]-] | –
< 10 | < 200 | 145 to 148 | Cc1cc(C(=O)NC[C@H](NC(=O)c2ccc(Oc3ccccc3)cc2)C(=O)N[C@@H](CC(C)C)B(O)O)n(C)n1 [E.5.31] | –
< 10 | < 200 | 175 to 180 | CCCCc1ccc(C(=O)N[C@@H](CNC(=O)c2ccno2)C(=O)N[C@@H](CC(C)C)B(O)O)cc1 [E.5.25, Boronic acid, [(1R)-1-[[(2S)-3-(2-isoxazolylcarbonylamino)-2-[(4-butylbenzoylamino)]-1-oxopropyl]amino]-3-methylbutyl]] | –
< 10 | < 200 | 155 to 158 | CCCCc1ccc(C(=O)N[C@@H](CNC(=O)c2csc(-c3ccncc3)n2)C(=O)N[C@@H](CC(C)C)B(O)O)cc1 [E.5.37, Boronic acid, [(1R)-1-[[(2S)-3-(4-(2-(4-pyridyl)-1,3-thiazole-4-carbonylamino)]-2-[(4-butylbenzoyl)amino]-1-oxopropyl]amino]-3-methylbutyl]] | –
< 10 | < 200 | 155 to 158 | CC(C)C[C@H](NC(=O)[C@H](CNC(=O)Nc1ccccc1)NC(=O)c1ccc(Oc2ccccc2)cc1)B(O)O [E.5.32, Boronic acid, [(1R)-1-[[(2S)-3-(4-phenylureido]-2-[(4-phenoxybenzoyl)amino]-1-oxopropyl]amino]-3-methylbutyl]] | –
< 10 | < 200 | 97 to 116 | CCCCCCCCCCCCC(=O)N[C@H](C(=O)N[C@@H](CC(C)C)B(O)O)[C@@H](C)O [E.3.3, Boronic acid, [(1R)-1-[[(2S,3R)-3-hydroxy-2-[(tridecanoyl)amino]-1-oxobutyl]amino]-3-methylbutyl]] | –
< 10 | < 200 | 158 to 160 | CC(C)C[C@H](NC(=O)[C@H](CNC(=O)c1ccc(-c2ccccc2)cc1)NC(=O)c1ccc(Oc2ccccc2)cc1)B(O)O [E.5.34, Boronic acid, [(1R)-1-[[(2S)-3-(4-phenylbenzamide]-2-[(4-phenoxybenzoyl)amino]-1-oxopropyl]amino]-3-methylbutyl]] | –
< 10 | < 200 | 130 to 132 | CCCCc1ccc(C(=O)N[C@@H](CNS(=O)(=O)c2ccc(F)cc2)C(=O)N[C@@H](CC(C)C)B(O)O)cc1 [E.5.11, Boronic acid, [(1R)-1-[[(2S)-3-[4-fluoro-benzenesulfonamide]-2-[(4-butylbenzoyl)amino]-1-oxopropyl]amino]-3-methylbutyl]] | –
< 10 | < 200 | 138 to 140 | CCCCc1ccc(C(=O)N[C@@H](CNC(=O)C#Cc2ccccc2)C(=O)N[C@@H](CC(C)C)B(O)O)cc1 [E.5.35] | –
< 10 | < 200 | 95 to 100 | CCCCc1ccc(C(=O)N[C@@H](CNC(=O)OCc2ccccc2)C(=O)N[C@@H](CC(C)C)B2O[C@@H]3C[C@@H]4C[C@@H](C4(C)C)[C@]3(C)O2)cc1 [D.16.6] | –
